Laboratory results as given in the supplement of paper PMC10627819.
In brackets after ≈: the same amount, converted by molar mass.

Key:
S. aureus Newman [1] = assay: fitness (endpoint OD595 vs no drug) (fraction); higher = more growth
In short: (§1)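 Bacterial growth was followed in 384-well plates seeded at OD595 0.01, with 30 µl per well, or 55 µl for S. pneumoniae, in TSB, LB Lennox or CY at 37 °C. OD595 was read every 30 min for 14 h, and each reading had the first reading subtracted as background. Fitness is the background-corrected optical density at entry into stationary phase divided by the robust mean of the no-drug control wells. This ratio is capped at 1.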

S. pneumoniae D39V [2] = assay: as above
In short: as §1

S. aureus DSM 20231 [3] = assay: as above
In short: as §1

S. aureus Newman [4] = tested on: S. aureus Newman
S. pneumoniae D39V [5] = tested on: S. pneumoniae D39V
S. aureus DSM 20231 [6] = tested on: S. aureus DSM 20231
B. subtilis 168 [7] = assay: fitness (endpoint OD595 vs no drug) (fraction); higher = more growth
In short: as §1

B. subtilis 168 [8] = tested on: B. subtilis 168
S. aureus Newman [9] = assay: Bliss interaction score (quartile over a dose matrix) (fitness difference); higher = more antagonism (negative = synergy)
In short: (§2)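 Fitness is OD595 at stationary-phase entry relative to the plate's robust no-drug mean, capped at 1. Single-drug fitness was inferred from combinations. The Bliss score is observed minus product-expected fitness, summarised by quartiles over technical, biological and donor/recipient replicates.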

S. pneumoniae D39V [10] = assay: as above
In short: as §2

S. aureus DSM 20231 [11] = assay: as above
In short: as §2

B. subtilis 168 [12] = assay: as above
In short: as §2
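Wherever Bliss interaction score (quartile over a dose matrix) is given: first quartile when negative (synergy) and third quartile when positive (antagonism).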

CC1(C)S[C@@H]2[C@H](NC(=O)[C@H](N)c3ccc(O)cc3)C(=O)N2[C@H]1C(=O)O [Amoxicillin]
fitness
Details | 0.0008 µg/mL | 0.0015 µg/mL | 0.003 µg/mL | 0.0625 µg/mL | 0.125 µg/mL | 0.25 µg/mL | 0.5 µg/mL
S. aureus DSM 20231 [3] | – | – | – | 0.606 | 0.504 | 0.0502 | 0.0082
S. aureus Newman [1] | – | – | – | 0.896 | 0.878 | 0.85 | 0.865
S. pneumoniae D39V [2] | 0.972 | 0.945 | 0.923 | – | – | – | –

Details | MIC [µg/mL]
S. aureus DSM 20231 [6] | 0.556 (≈ 1.52 µM)
S. aureus Newman [4] | 0.25 (≈ 0.684 µM)
S. pneumoniae D39V [5] | 0.004 (≈ 0.0109 µM)

CO/N=C(\C(=O)N[C@@H]1C(=O)N2C(C(=O)[O-])=C(C[N+]3(C)CCCC3)CS[C@H]12)c1csc(N)n1 [Cefepime]
Details | fitness
B. subtilis 168 [7], 0.0625 µg/mL | 0.872
B. subtilis 168 [7], 0.125 µg/mL | 0.729
B. subtilis 168 [7], 0.25 µg/mL | 0.432
S. aureus DSM 20231 [3], 0.125 µg/mL | ≥ 1
S. aureus DSM 20231 [3], 0.25 µg/mL | 0.996
S. aureus DSM 20231 [3], 0.5 µg/mL | 0.935
S. aureus Newman [1], 0.125 µg/mL | 0.924
S. aureus Newman [1], 0.25 µg/mL | 0.872
S. aureus Newman [1], 0.5 µg/mL | 0.784
S. pneumoniae D39V [2], 0.0078 µg/mL | ≥ 1
S. pneumoniae D39V [2], 0.0155 µg/mL | 0.993
S. pneumoniae D39V [2], 0.031 µg/mL | 0.696

Details | MIC [µg/mL]
B. subtilis 168 [8] | 0.25 (≈ 0.52 µM)
S. aureus DSM 20231 [6] | 0.556 (≈ 1.16 µM)
S. aureus Newman [4] | 0.556 (≈ 1.16 µM)
S. pneumoniae D39V [5] | 0.031 (≈ 0.0645 µM)

CCCCCCCCCC(=O)N[C@@H](Cc1c[nH]c2ccccc12)C(=O)N[C@H](CC(N)=O)C(=O)N[C@@H](CC(=O)O)C(=O)N[C@@H]1C(=O)NCC(=O)N[C@@H](CCCN)C(=O)N[C@@H](CC(=O)O)C(=O)N[C@H](C)C(=O)N[C@@H](CC(=O)O)C(=O)NCC(=O)N[C@H](CO)C(=O)N[C@@H]([C@H](C)CC(=O)O)C(=O)N[C@@H](CC(=O)c2ccccc2N)C(=O)O[C@@H]1C [Daptomycin]
fitness
Details | 0.125 µg/mL | 0.25 µg/mL | 0.5 µg/mL | 1 µg/mL | 2 µg/mL | 4 µg/mL
B. subtilis 168 [7] | 0.941 | 0.944 | 0.934 | – | – | –
S. aureus DSM 20231 [3] | 0.998 | 0.989 | ≥ 1 | ≥ 1 | ≥ 1 | –
S. aureus Newman [1] | 0.954 | 0.964 | 0.964 | 0.98 | ≥ 1 | –
S. pneumoniae D39V [2] | – | – | – | 0.875 | 0.889 | 0.853

Details | MIC [µg/mL]
B. subtilis 168 [8] | 0.5 (≈ 0.309 µM)
S. aureus DSM 20231 [6] | 2 (≈ 1.23 µM)
S. aureus Newman [4] | 1 (≈ 0.617 µM)
S. pneumoniae D39V [5] | 8 (≈ 4.94 µM)

C[C@H]1COc2c(N3CCN(C)CC3)c(F)cc3c(=O)c(C(=O)O)cn1c23 [Levofloxacin]
fitness
Details | 0.002 µg/mL | 0.0039 µg/mL | 0.0078 µg/mL | 0.0312 µg/mL | 0.0625 µg/mL | 0.125 µg/mL | 0.2 µg/mL | 0.4 µg/mL | 0.8 µg/mL
B. subtilis 168 [7] | 0.932 | 0.928 | 0.916 | 0.0401 | 0.0424 | 0.0419 | – | – | –
S. pneumoniae D39V [2] | – | – | – | – | – | – | 0.931 | 0.789 | 0.468

Details | MIC [µg/mL]
S. aureus DSM 20231 [6] | 0.15 (≈ 0.415 µM)
S. pneumoniae D39V [5] | 2 (≈ 5.53 µM)

CN(C)C(=O)C(CCN1CCC(O)(c2ccc(Cl)cc2)CC1)(c1ccccc1)c1ccccc1 [Loperamide]
fitness
Details | 20 µg/mL | 25 µg/mL | 40 µg/mL | 50 µg/mL | 80 µg/mL | 100 µg/mL
B. subtilis 168 [7] | – | 0.651 | – | 0.254 | – | 0.03
S. aureus DSM 20231 [3] | – | ≥ 1 | – | 0.925 | – | 0.0918
S. pneumoniae D39V [2] | ≥ 1 | – | ≥ 1 | – | 0.869 | –

Details | MIC [µg/mL]
B. subtilis 168 [8] | 100 (≈ 210 µM)
S. aureus DSM 20231 [6] | 120 (≈ 252 µM)
S. aureus Newman [4] | 120 (≈ 252 µM)
S. pneumoniae D39V [5] | 200 (≈ 419 µM)

CCN(CC)CCOC(=O)c1ccc(N)cc1 [Procaine]
fitness
Details | B. subtilis 168 [7] | S. aureus DSM 20231 [3] | S. aureus Newman [1] | S. pneumoniae D39V [2]
85.5 µg/mL | 0.922 | 0.999 | 0.982 | 0.995
171 µg/mL | 0.918 | 0.998 | 0.972 | ≥ 1
342 µg/mL | 0.91 | 0.999 | 0.95 | 0.977

Details | MIC [µg/mL]
B. subtilis 168 [8] | > 342
S. aureus DSM 20231 [6] | > 342
S. aureus Newman [4] | > 342
S. pneumoniae D39V [5] | > 342

CCN(CC)CCOC(=O)c1ccc(N)cc1 [Procaine] + CN(N=O)C(=O)N[C@@H](C=O)[C@@H](O)[C@H](O)[C@H](O)CO [Streptozotocin]
fitness
Details | first compound 85.5 µg/mL | first compound 171 µg/mL | first compound 342 µg/mL
S. aureus DSM 20231 [3], partner 0.15 µg/mL | 0.822 | 0.848 | 0.851
S. aureus DSM 20231 [3], partner 0.3 µg/mL | 0.724 | 0.799 | 0.786
S. aureus DSM 20231 [3], partner 0.6 µg/mL | 0.593 | 0.682 | 0.651
S. aureus Newman [1], partner 0.15 µg/mL | 0.894 | 0.85 | 0.904
S. aureus Newman [1], partner 0.3 µg/mL | 0.809 | 0.798 | 0.799
S. aureus Newman [1], partner 0.6 µg/mL | 0.624 | 0.602 | 0.617
S. pneumoniae D39V [2], partner 1.2 µg/mL | 0.977 | 0.994 | 0.963
S. pneumoniae D39V [2], partner 2.4 µg/mL | 0.994 | ≥ 1 | 0.945
S. pneumoniae D39V [2], partner 4.8 µg/mL | 0.993 | ≥ 1 | 0.961

fitness, B. subtilis 168 [7], one replicate
Details | first compound 85.5 µg/mL | first compound 171 µg/mL | first compound 342 µg/mL
partner 0.15 µg/mL | 0.98 | 0.945 | 0.891
partner 0.3 µg/mL | 0.948 | 0.988 | 0.954
partner 0.6 µg/mL | 0.901 | 0.944 | 0.881

Details | Bliss interaction score
B. subtilis 168 [12] | 0.0445
S. aureus DSM 20231 [11] | -0.076
S. aureus Newman [9] | 0.0489
S. pneumoniae D39V [10] | 0.0574
